The values below come from PubChem BioAssay (NCI).

Molecules are shown by their SMILES.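 The compound was tested at five concentrations on cells cultured in 96-well plates, with a 48-hour exposure period. TGI denotes the concentration required for complete inhibition of growth.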

Assay in all cases: DTP human tumour cell line panel, 48 h
Experiment [1] relates to DU-145 prostate.
Experiment [2] relates to OVCAR-5 ovarian.
In experiment [3] the test system is OVCAR-3 ovarian.
Experiment [4] relates to SK-OV-3 ovarian.
Experiment [5] deals with A549 NSCLC.
Experiment [6] deals with K-562 leukemia.
In experiment [7] the test system is SF-539 CNS.
Experiment [8] has as its system MDA-MB-231 breast.
The subject of experiment [9] is IGROV1 ovarian.
Experiment [10] concerns OVCAR-8 ovarian.
In experiment [11] the test system is SF-268 CNS.
The subject of experiment [12] is NCI-H23 lung.
Experiment [13] deals with CAKI-1 renal.
In experiment [14] the test system is OVCAR-4 ovarian.
Experiment [15] concerns SF-295 CNS.
Experiment [16] deals with HCT-15 colon.
The subject of experiment [17] is M14 melanoma.
For experiment [18], the system named is SK-MEL-2 melanoma.
The subject of experiment [19] is HOP-92 NSCLC.

For orientation: TGI means the concentration at which net growth stops. A low value points to more potent growth arrest. As for `CC1=C2C3=C(C)C(=O)C(C)(C)CC[C@@]3(C)[C@]2(C)CCC(C)(C)C1=O`, the TGI in [1], in experiment [2], in experiment [3], in experiment [4], in experiment [5] and in experiment [6] was > 100 µM in each case. Further, the TGI in experiment [7], in [8], in [9], in experiment [10], in experiment [11] and in [12] was > 100 µM in each case. The TGI in experiment [13], in experiment [14], in experiment [15], in [16] and in experiment [17] was > 100 µM throughout.
Consider `O=C(c1ccc(Cl)cc1Cl)N(C(=O)N1CCCCC1)c1ccccc1`, for which the concentration for total growth inhibition (TGI) in [1], in experiment [2], in experiment [3], in [4], in [6] and in experiment [7] was > 100 µM in each case. Besides, the TGI in experiment [8], in experiment [9], in experiment [10], in experiment [11], in experiment [18] and in [12] was > 100 µM in each case. Besides, the TGI in [13], in [15], in experiment [16] and in experiment [17] was > 100 µM each time.
Consider `CN1CCC(OC(=O)Oc2ccccc2)(c2ccccc2)CC1`, for which the TGI in experiment [1] is > 100 µM; in [2] it was 84.2 µM; in experiment [3], > 100 µM; in experiment [4], 52.9 µM; in experiment [5] it was > 100 µM; in [6] it was 55.3 µM. Also, the TGI in experiment [7] was 26.5 µM; in experiment [8] it was 29.1 µM; in experiment [9], 64.5 µM; in [10], 33 µM; in experiment [11] it was > 100 µM; in experiment [18], 33.2 µM. The TGI in [12] was 35.7 µM; in experiment [13] it was > 100 µM; in experiment [14], 48.4 µM; in experiment [15] it was 55.4 µM; in [16], 36.8 µM; in experiment [17] it was 28.2 µM.
`O=[N+]([O-])C(C(Cl)=C(Cl)Cl)=C(N1CCOCC1)N1CCOCC1`: the TGI in [1], in experiment [2], in experiment [3], in experiment [4], in experiment [5] and in experiment [6] was > 100 µM throughout. The TGI in experiment [7], in experiment [8], in experiment [9], in [10], in experiment [11] and in experiment [18] was > 100 µM each time. Moreover, the TGI in [12], in [13], in experiment [14], in experiment [15], in experiment [16] and in experiment [17] was > 100 µM in each case.
With `CCOC(=O)N/N=C(/N)Cc1ccccc1`, the total growth inhibition concentration (TGI) in [1], in experiment [2], in experiment [3], in [4], in experiment [5] and in [6] was > 100 µM throughout. The TGI in experiment [7], in experiment [8], in [9], in [10], in [11] and in experiment [19] was > 100 µM in each case. Also, the TGI in [18], in experiment [13], in [15], in experiment [16] and in [17] was > 100 µM in each case.
With `O=C(CC(=O)N(C(=O)c1ccccc1)c1ccc(Cl)cc1)N/N=C\c1cc(N=Nc2ccccc2Cl)ccc1O`, the TGI in [1] is > 100 µM; in experiment [2], > 100 µM; in [3] it was > 100 µM; in experiment [4], > 100 µM; in experiment [5], > 100 µM; in experiment [6], 36 µM. The TGI was > 100 µM in experiment [7]; > 100 µM in experiment [8]; > 100 µM in [9]; > 100 µM in [10]; > 100 µM in experiment [11]; 59.6 µM in [19]. Also, the TGI in experiment [12], in experiment [13], in experiment [15], in [16] and in experiment [17] was > 100 µM in each case.
For the compound `O=C1NNC(=O)C2C3c4ccccc4C(c4ccccc43)C12` (stereo not drawn), the TGI in experiment [1], in experiment [2], in [3], in experiment [4], in experiment [5] and in experiment [6] was > 100 µM throughout. The TGI in [7], in experiment [8], in experiment [9], in experiment [10], in [11] and in experiment [12] was > 100 µM in each case. The TGI in experiment [13], in [14], in [15], in [16] and in [17] was > 100 µM in each case.
Take `CCN(CC)Cc1cc(Nc2ccnc3ccc4c(nnn4C)c23)ccc1O`: the TGI in experiment [1] came out at 31.4 µM; in [2], 33.9 µM; in experiment [3], 39.9 µM; in experiment [4], 31.5 µM; in experiment [5], 27 µM; in [6] it was 33 µM. For the same compound, the TGI in experiment [7] stood at 18.4 µM; in experiment [8] it was 44.6 µM; in experiment [9], 80.3 µM; in experiment [10], 41.9 µM; in experiment [11] it was 29.9 µM; in [18], 31.8 µM. The TGI is 25.6 µM in [12]; 33.3 µM in experiment [13]; 32.6 µM in experiment [14]; 25.9 µM in [15]; 13.5 µM in experiment [16]; 28.7 µM in experiment [17].
As to `CSc1nc(Cl)c2c(n1)Sc1nc3cc4c(cc3n1C2O)OCO4` (stereo not drawn), the TGI in experiment [1] was > 100 µM; in experiment [2] it was > 100 µM; in [3], 7.3 µM; in experiment [4], > 75.3 µM; in experiment [5] it was > 47.9 µM; in [6], > 100 µM. In addition, the total growth inhibition concentration (TGI) in experiment [7] was 0.327 µM; in experiment [8], > 83.3 µM; in experiment [9], > 72.2 µM; in experiment [10] it was 3.85 µM; in [11] it was > 100 µM; in experiment [18], > 64.4 µM. Further, the TGI in experiment [12] is > 100 µM; in experiment [13], > 100 µM; in experiment [14], > 100 µM; in experiment [15], > 83.2 µM; in experiment [16], > 100 µM; in experiment [17], > 43.9 µM.
For the compound `Cc1nnc([C@@]2(C)CC[C@H]3[C@@H](CC=C4C[C@@H](O)CC[C@@]43C)[C@@H]2CC#N)o1`, the TGI in [2], in experiment [3], in experiment [4], in experiment [5], in experiment [6] and in experiment [7] was > 100 µM throughout. Besides, the TGI in experiment [8], in [10], in experiment [11], in [19], in experiment [18] and in experiment [12] was > 100 µM in each case. For the same compound, the TGI in experiment [13], in experiment [14], in experiment [15], in [16] and in experiment [17] was > 100 µM each time.
As for `CCCCCCCCCCCCCCCCCc1cccc(OCOCCOC)c1CO`, the TGI in experiment [2], in experiment [3], in experiment [4], in experiment [5], in experiment [6] and in experiment [7] was > 100 µM each time. Moreover, the TGI in [8], in experiment [9], in experiment [10], in [11], in experiment [19] and in experiment [18] was > 100 µM throughout. Also, the TGI in experiment [12], in experiment [13], in [14], in experiment [15], in [16] and in [17] was > 100 µM each time.
`COc1ccc2c(c1)OCc1c-2oc2ccccc2c1=O`: the TGI in experiment [1], in experiment [2], in experiment [3], in experiment [4], in experiment [5] and in experiment [6] was > 100 µM in each case. Also, the TGI in [7], in [8], in experiment [9], in [10], in [11] and in [19] was > 100 µM in each case. For the same compound, the TGI in experiment [18], in experiment [13], in experiment [15], in [16] and in experiment [17] was > 100 µM in each case.
For the compound `Cc1cc(C)cc(Nc2nnc3n2S(=O)(=O)c2cc(C#N)c(Cl)cc2S3)c1`, the TGI in experiment [1] is 12.5 µM; in experiment [2], 9.55 µM; in [3], 3.34 µM; in experiment [4], 21.9 µM; in experiment [5], 32.9 µM; in experiment [6], > 100 µM. The TGI was found to be 3.97 µM in [7]; 12.8 µM in experiment [8]; 1.68 µM in experiment [9]; 5.48 µM in experiment [11]; 19.5 µM in experiment [18]; 4.35 µM in experiment [12]. In addition, the TGI in experiment [13] worked out at 12.6 µM; in experiment [14], 22.1 µM; in experiment [15] it was 9.2 µM; in experiment [16] it was 8.16 µM; in [17], 28.2 µM.
For the compound `Nc1nc(Cl)cc(NCC2(CO)COC2)n1`, the TGI in [1], in experiment [2], in experiment [3], in experiment [4], in experiment [5] and in experiment [6] was > 100 µM throughout. The TGI in experiment [7], in experiment [8], in [9], in experiment [10], in experiment [11] and in experiment [18] was > 100 µM in each case. The TGI in experiment [12], in experiment [13], in experiment [14], in [15] and in experiment [16] was > 100 µM in each case.
On to `Cc1nc(N)c(N2CCNCC2)c(=O)[nH]1`, for which the TGI in [1], in experiment [2], in experiment [3], in experiment [5], in experiment [6] and in [7] was > 100 µM in each case. In addition, the TGI in experiment [8], in experiment [10], in experiment [11], in experiment [19], in experiment [18] and in experiment [12] was > 100 µM each time. The TGI in [15], in experiment [16] and in experiment [17] was > 100 µM in each case.
With `COc1ccc(OC)c2c1C(=O)C(Cl)=C(N1CCN(CCOCCO)CC1)C2=O`, the TGI in experiment [1] is 32.8 µM; in [2] it was 37.3 µM; in experiment [3], 31.1 µM; in experiment [4], 34 µM; in [5], 39 µM; in experiment [6] it was 4.24 µM. Moreover, the TGI in experiment [7] was 32.8 µM; in experiment [8] it was 27.7 µM; in [10] it was 30.9 µM; in experiment [11], 29.5 µM; in experiment [19] it was 31.8 µM; in experiment [12], 21.6 µM. Also, the TGI was determined as 32 µM in experiment [14], 32.9 µM in experiment [15], 18.4 µM in experiment [16] and 31.7 µM in experiment [17].
